According to US9617256B2 (priority 2007, dated 2017):
Values after ≈ are worked out from the molar mass of the structure shown.

Columns and labels:
AECO001 (ATCC25922) = assay: MIC broth microdilution, AECO001; assay type: cell-based, E. coli; conditions: Escherichia coli, ATCC25922, read-out: MIC AECO001
Outline: (§1)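 Growth inhibition was scored by CLSI broth microdilution using cation-adjusted Mueller-Hinton broth and a final inoculum between 3×10^5 and 7×10^5 CFU/mL, incubated 18-24 hours at 35° C.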

[1] = tested on: AECO063 (ATCC25922 bearing an acrAB mutation); assay: microbe, parasite or virus in culture; assay type: cell-based, E. coli; conditions: Escherichia coli, ATCC25922, read-out: MIC AECO063
Outline: as §1

AECO001 HSA AGP = assay: MIC broth microdilution, AECO001 HSA AGP; assay type: cell-based, E. coli; conditions: Escherichia coli
Outline: as §1

[2] = tested on: ASAU001 (laboratory strain of S. aureus, ATCC29213); assay: MIC broth microdilution, ASAU001; assay type: cell-based; conditions: Staphylococcus aureus, ATCC29213, read-out: MIC ASAU001
Outline: as §1

[3] = tested on: AABA1060 (clinical isolate of Acinetobacter baumannii); assay: MIC broth microdilution, AABA1060; assay type: cell-based; conditions: Acinetobacter baumannii, read-out: MIC AABA1060
Outline: as §1

[4] = tested on: APAE006 (strain of P. aeruginosa in which all efflux pumps are inactivated); assay: microbe, parasite or virus in culture; assay type: cell-based; conditions: Pseudomonas aeruginosa, read-out: MIC APAE006, P. aeruginosa, all efflux pumps inactivated
Outline: (§2)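 Inocula prepared from 0.5 McFarland suspensions (final 3×10^5–7×10^5 CFU/mL) were added to 2-fold drug dilution series in cation-adjusted Mueller-Hinton broth. Plates stood 18-24 hours at 35° C. under ambient air.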

APAE001 (ATCC27853) = assay: MIC broth microdilution, APAE001; assay type: cell-based, P. aeruginosa; conditions: Pseudomonas aeruginosa, ATCC27853, read-out: MIC APAE001, APAE001 is ATCC27853
Outline: as §1

[5] = tested on: APAE006 in the presence of 8 micrograms per milliliter of polymyxin B nonapeptide; assay type: cell-based, P. aeruginosa; conditions: in the presence of 8 micrograms per milliliter of polymyxin B nonapeptide
Outline: as §2

Row | Structure (SMILES) | MIC (AECO001 (ATCC25922)) [µg/mL] | MIC [1] [µg/mL] | MIC (AECO001 HSA AGP) [µg/mL] | MIC [2] [µg/mL] | MIC [3] [µg/mL] | MIC [4] [µg/mL] | MIC (APAE001 (ATCC27853)) [µg/mL] | MIC APAE006 + PMBN [5]
1 | CC(C)(N)C(NC(=O)c1ccc(C#Cc2ccc(CNCC(F)F)cc2)cc1)C(=O)NO (stereo not drawn) [Example 137-7] | < 2 | < 2 | 2 to 16 (≈ 4.5 to 36 µM) | 16 to 64 (≈ 36 to 144 µM) | 2 to 16 (≈ 4.5 to 36 µM) | < 2 | < 2 | A (MIC's of 2.0 μg/mL or less = A)
2 | C[C@@H](NC(=O)CNC1CC1)[C@H](NC(=O)c1ccc(C#Cc2ccc(CO)cc2)cc1)C(=O)NO [Example 137-3] | < 2 | < 2 | 2 to 16 (≈ 4.31 to 34.4 µM) | 16 to 64 (≈ 34.4 to 138 µM) | 16 to 64 (≈ 34.4 to 138 µM) | < 2 | 2 to 16 (≈ 4.31 to 34.4 µM) | A (MIC's of 2.0 μg/mL or less = A)
3 | C[C@@H](O)[C@H](NC(=O)c1ccc(N2CCN(c3ccc(CN4CCOCC4)cc3)CC2)cc1)C(=O)NO [Example 43-7, N-((1S,2R)-2-Hydroxy-1-hydroxycarbamoyl-propyl)-4-[4-(4-morpholin-4-ylmethyl-phenyl)-piperazin-1-yl]-benzamide] | > 64 | 16 to 64 (≈ 32.2 to 129 µM) | > 64 | > 64 | > 64 | < 2 | 16 to 64 (≈ 32.2 to 129 µM) | A (MIC's of 2.0 μg/mL or less = A)
4 | O=C(N[C@H](C(=O)NO)C1CC1)c1ccc(/C=C/C#Cc2ccc(CN3CCOCC3)cc2)cc1 [Example 110-9] | < 2 | < 2 | 2 to 16 (≈ 4.35 to 34.8 µM) | > 64 | 2 to 16 (≈ 4.35 to 34.8 µM) | < 2 | 2 to 16 (≈ 4.35 to 34.8 µM) | A (MIC's of 2.0 μg/mL or less = A)
5 | CC(C)(O)[C@H](NC(=O)c1ccc(C#C/C=C/c2ccccc2)cc1)C(=O)NO [Example 104-3] | < 2 | < 2 | 2 to 16 (≈ 5.29 to 42.3 µM) | 16 to 64 (≈ 42.3 to 169 µM) | < 2 | < 2 | < 2 | A (MIC's of 2.0 μg/mL or less = A)
6 | CO[C@H](C)[C@H](NC(=O)c1ccc(/C=C/C#Cc2ccc(CNC3CC3)cc2)cc1)C(=O)NO [Example 113-7] | < 2 | < 2 | 2 to 16 (≈ 4.47 to 35.8 µM) | > 64 | 2 to 16 (≈ 4.47 to 35.8 µM) | < 2 | 2 to 16 (≈ 4.47 to 35.8 µM) | A (MIC's of 2.0 μg/mL or less = A)
7 | C[C@@H](N)[C@H](NC(=O)c1ccc(C#Cc2cccnc2)cc1)C(=O)NO [Example 133-9] | 16 to 64 (≈ 47.3 to 189 µM) | 2 to 16 (≈ 5.91 to 47.3 µM) | 16 to 64 (≈ 47.3 to 189 µM) | > 64 | 16 to 64 (≈ 47.3 to 189 µM) | < 2 | 2 to 16 (≈ 5.91 to 47.3 µM) | A (MIC's of 2.0 μg/mL or less = A)
8 | C[C@@H](N)[C@H](NC(=O)c1ccc(C#Cc2ccc(CNCC(F)F)cc2)cc1)C(=O)NO [Example 119-1, N-((1S,2R)-2-Amino-1-hydroxycarbamoyl-propyl)-4-{4-[(2,2-difluoro-ethylamino)-methyl]-phenylethynyl}-benzamide] | < 2 | < 2 | 2 to 16 (≈ 4.65 to 37.2 µM) | 16 to 64 (≈ 37.2 to 149 µM) | 2 to 16 (≈ 4.65 to 37.2 µM) | < 2 | < 2 | A (MIC's of 2.0 μg/mL or less = A)
9 | O=C(CNC1CC1)NC[C@H](NC(=O)c1ccc(C#CC#Cc2ccccc2)cc1)C(=O)NO [Example 85-1, N—[(S)-2-(2-Cyclopropylamino-acetylamino)-1-hydroxycarbamoyl-ethyl]-4-(4-phenyl-buta-1,3-diynyl)-benzamide] | < 2 | < 2 | 2 to 16 (≈ 4.5 to 36 µM) | 16 to 64 (≈ 36 to 144 µM) | 16 to 64 (≈ 36 to 144 µM) | < 2 | 2 to 16 (≈ 4.5 to 36 µM) | A (MIC's of 2.0 μg/mL or less = A)
10 | C[C@@H](O)[C@H](NC(=O)c1ccc(C#Cc2ccc(O)cc2)cc1)C(=O)NO [Example 133-12] | < 2 | < 2 | 2 to 16 (≈ 5.64 to 45.2 µM) | 16 to 64 (≈ 45.2 to 181 µM) | 16 to 64 (≈ 45.2 to 181 µM) | < 2 | < 2 | A (MIC's of 2.0 μg/mL or less = A)
11 | C[C@@H](N)[C@H](NC(=O)c1ccc(C#Cc2ccc(CNCCF)cc2)cc1)C(=O)NO [Example 118-9] | < 2 | < 2 | 2 to 16 (≈ 4.85 to 38.8 µM) | 16 to 64 (≈ 38.8 to 155 µM) | 2 to 16 (≈ 4.85 to 38.8 µM) | < 2 | < 2 | A (MIC's of 2.0 μg/mL or less = A)
12 | NCC(=O)NCc1ccc(C#Cc2ccc(C(=O)N[C@@H](CN)C(=O)NO)cc2)cc1 [Example 116-1, (S)—N-(3-amino-1-(hydroxyamino)-1-oxopropan-2-yl)-4-((4-((2-aminoacetamido)methyl)phenyl)ethynyl)benzamide] | 16 to 64 (≈ 39.1 to 156 µM) | 16 to 64 (≈ 39.1 to 156 µM) | 16 to 64 (≈ 39.1 to 156 µM) | 16 to 64 (≈ 39.1 to 156 µM) | 16 to 64 (≈ 39.1 to 156 µM) | < 2 | 2 to 16 (≈ 4.88 to 39.1 µM) | A (MIC's of 2.0 μg/mL or less = A)
13 | CC(C)(O)[C@H](NC(=O)c1ccc(C#CC#Cc2ccccc2)cc1)C(=O)NO [Example 82-13] | < 2 | < 2 | < 2 | 16 to 64 (≈ 42.5 to 170 µM) | < 2 | < 2 | < 2 | A (MIC's of 2.0 μg/mL or less = A)
14 | O=C(N[C@H](C(=O)NO)C1CCS(=O)(=O)CC1)c1ccc(/C=C/C#Cc2ccc(CN3CCOCC3)cc2)cc1 [Example 110-8] | < 2 | < 2 | 16 to 64 (≈ 29 to 116 µM) | > 64 | 16 to 64 (≈ 29 to 116 µM) | < 2 | 2 to 16 (≈ 3.63 to 29 µM) | A (MIC's of 2.0 μg/mL or less = A)
15 | C[C@@H](N)[C@H](NC(=O)c1ccc(C#CC#Cc2ccc(N)cc2)cc1)C(=O)NO [Example 82-16] | < 2 | < 2 | 2 to 16 (≈ 5.31 to 42.5 µM) | 16 to 64 (≈ 42.5 to 170 µM) | < 2 | < 2 | < 2 | A (MIC's of 2.0 μg/mL or less = A)
